Consider one molecule from US9757408B2 (Hayashibara Co., Ltd., priority 2010, dated 2017).

SMILES strings stand for the structures. Marks after values point to notes of the source that are not given here.

Series [1] has as its system lipopolysaccharide (LPS)-induced endotoxin shock mice. As to the kind of experiment: LPS-induced endotoxin shock mice, survival, ANO i.v. simultaneously with LPS (Experiment 1). The format is in vivo, BALB/c mice. As to conditions: LPS 15 mg/kg i.p.; for Survival rate (%) of mice, 7 Hours: 7 hours after LPS; for Survival rate (%) of mice, 19 Hours: 19 hours after LPS; for Survival rate (%) of mice, 26 Hours: 26 hours after LPS; for Survival rate (%) of mice, 43 Hours: 43 hours after LPS. How it is done: USA, which had been dissolved in phosphate buffered saline (PBS) (Experiment groups 1 to 3). […] To the remaining five heads of another one group were intravenously administered with 0.2 mL/head of PBS simultaneously with the LPS administration (Experiment group 1). For each group, the survival number of mice was macroscopically observed up to 7 to 43 hours after the LPS administration, and based on this, the survival rate was determined for each group. The survival rate (%) of mice for each group was calculated by dividing the survival number of mice at each observation time with the survival number of mice at the initiation of this experiment, and multiplying the obtained value by 100.

Series [2] relates to TNF-α production from mouse intraperitoneal macrophages. Description: TNF-α production from mouse intraperitoneal macrophages, LPS + IFN-γ, ELISA (Experiment 2). As to conditions: for TNF-α Concentration: LPS 2 μg/mL, IFN-γ 10 IU/mL. The format is cell-based. The protocol: The resulting cell suspension was added to a dish for tissue culture (product code: 353003, commercialized by Becton Drive Franklin Lakes, N.J., USA), and incubated in a 5% v/v CO2 incubator at 37° C. for 1.5 hours to attach the peritoneal exudate macrophages on the surface of the dish.
TNF-α in each collected supernatant was assayed with enzyme-linked immunosorbent assay (ELISA) (Experiment groups 2 to 5). […] The results are in Table 2 in parallel. The test for each Experiment group was conducted by using three wells. The assay for TNF-α was conducted on an ELISA using a commercialized rat anti-mouse TNF-α antibody (“Rat anti-mouse/rat TNF antibody” (product code: 551225), a product name of Becton Drive Franklin Lakes, N.J., USA) as a solid phase antibody; a commercialized biotin-labeled rat anti-mouse TNF-α antibody (“Biotin-Labeled Rat Anti-Mouse TNF Antibody”, product code: 554415, commercialized by Becton Drive Franklin Lakes, N.J., USA) as a secondary antibody; and an HRPO-labeled streptavidin.
For orientation: In an ELISA, binding on a coated surface is turned into a signal by an enzyme label.

Series [3] concerns IL-6 in serum of mice administered with LPS. As to the kind of experiment: Serum IL-6 in LPS-administered mice, ANO i.v. (Experiment 7). It is filed as in vivo, BALB/c mice. As to conditions: LPS 18 mg/kg i.p., serum two hours after LPS. The protocol:
(§1) More specifically, 18 BALB/c female mice, 9-week-old, commercialized by Japan Charles River, Tokyo, Japan, were randomly divided into three groups, six heads each. An LPS specimen derived from E. coli (055:B5), commercialized by Sigma-Aldrich Corporation, St. Louis, Mo. USA, was dissolved in physiological saline and intraperitoneally administered to all the 6 mice in respective three groups at a dose of 18 mg/kg body weight of LPS (Experiment groups 1 to 3). […] To the six mice of the remaining one group was intravenously administered PBS in a liquid volume of 0.2 mL/head simultaneously with the administration of LPS (Experiment group 1).
(§2) For the mice in each group, they were collected blood at two hours after the LPS administration, followed by assaying the level of TNF-α, IL-6, IL-10, and IL-12 in each serum and averaging the data for each group. For the assay of the level of TNF-α, the same ELISA as in Experiment 2 was used and for the assay of the level of IL-6, the same ELISA as in Experiment 3 was used. […]

Series [4] relates to IL-12 in serum of mice administered with LPS. Description: Serum IL-12 in LPS-administered mice, ANO i.v. (Experiment 7). It is filed as in vivo, BALB/c mice. As to conditions: LPS 18 mg/kg i.p., serum two hours after LPS. How it is done: as §1, §2
In series [5] the test system is IL-6 in serum of mice administered with LPS. Description: Serum IL-6 in LPS-administered mice, oral administration (Experiment 11). It is filed as in vivo, BALB/c mice. As to conditions: LPS 18 mg/kg i.p., serum 90 min after LPS. The protocol:
(§3) The seven mice in another one group were orally administered through a gastric tube with 3′-glucosyl-adenosine N1-oxide, which had been dissolved in PBS, at a dose of 200 mg/kg body weight in a liquid volume of 0.2 mL/head (Experiment group 4). The seven mice in the remaining one group were orally administered through a gastric tube with PBS in a liquid volume of 0.2 mL/head (Experiment group 1). All the mice were intraperitoneally administered with an LPS specimen derived from E. coli (055:B5), commercialized by Sigma-Aldrich Corporation, St. Louis, Mo. USA, which had been dissolved in PBS, at a dose of 18 mg/kg body weight (Experiment groups 1 to 4). For each group, the mice were collected blood from their tail veins at 90 min after administering LPS, followed by assaying the concentrations of TNF-α, IL-6, and IL-10 contained in serum by the same method as in […].

The test system of series [6] is IL-10 in serum of mice administered with LPS. As to the kind of experiment: Serum IL-10 in LPS-administered mice, oral administration (Experiment 11). The format is in vivo, BALB/c mice. As to conditions: LPS 18 mg/kg i.p., serum 90 min after LPS. The protocol: as §3
For series [7] the following is noted: D-MEM medium, absence of human serum, 100 μM, 37° C., 24 hours.

With `Nc1c2ncn([C@@H]3O[C@H](CO)[C@@H](O)[C@H]3O)c2nc[n+]1[O-]` [ANO, adenosine N1-oxide], the “Survival rate (%) of mice, 7 Hours” value in series [1] (ANO 15 mg/kg body weight i.v.) and in series [1] (ANO 45 mg/kg body weight i.v.) was 100% each time. In addition, the “Survival rate (%) of mice, 19 Hours” value in series [1] (ANO 15 mg/kg body weight i.v.) and in series [1] (ANO 45 mg/kg body weight i.v.) was 100% throughout. The figures for the “Survival rate (%) of mice, 26 Hours” value in series [1] (ANO 15 mg/kg body weight i.v.) and in series [1] (ANO 45 mg/kg body weight i.v.) were 80% and 100%, respectively. Also, the “Survival rate (%) of mice, 43 Hours” value in series [1] (ANO 15 mg/kg body weight i.v.) and in series [1] (ANO 45 mg/kg body weight i.v.) was 80% in each case. Moreover, the “TNF-α Concentration” value in series [2] (ANO 0.006 μM) is given as 1573 pg/mL; in series [2] (ANO 0.031 μM), 1637 pg/mL; in series [2] (ANO 0.063 μM), 1136 pg/mL; in series [2] (ANO 0.313 μM) it was 545 pg/mL. Further, the “concentration range in which the production of TNF-α was significantly inhibited” value in series [2] (mouse intraperitoneal macrophages, LPS and IFN-γ) was at least 0.063 µM. The “IL-6 Concentration” value is given as 59.1 ng/mL in series [3] (ANO 68 mg/kg i.v.) and 46.3* ng/mL in series [3] (ANO 135 mg/kg i.v.). Further, the “IL-12 Concentration” value in series [4] (ANO 68 mg/kg i.v.) is listed as 136** pg/mL; in series [4] (ANO 135 mg/kg i.v.), 105** pg/mL. Besides, the “Amount of IL-6” value was 17.5 ng/mL in series [5] (oral 100 mg/kg) and 16.0* ng/mL in series [5] (oral 200 mg/kg). Moreover, the “Amount of IL-10” value is reported as 5.6* ng/mL in series [6] (oral 100 mg/kg) and 9.7** ng/mL in series [6] (oral 200 mg/kg). This molecule also yielded a residual percentage in series [7] of 100%.
